In BindingDB's records for doi:10.1124/jpet.105.084830 (University of Tokyo, 2005) one finds Ki data, which are given here for nine compounds.

Each structure is given as a SMILES string. A value given as a limit tells only on which side of the number the result lay.

In assay [1] the target is T1, Bile salt export pump (Rattus norvegicus, UniProt O70127).
T1 sequence (O70127 whole entry): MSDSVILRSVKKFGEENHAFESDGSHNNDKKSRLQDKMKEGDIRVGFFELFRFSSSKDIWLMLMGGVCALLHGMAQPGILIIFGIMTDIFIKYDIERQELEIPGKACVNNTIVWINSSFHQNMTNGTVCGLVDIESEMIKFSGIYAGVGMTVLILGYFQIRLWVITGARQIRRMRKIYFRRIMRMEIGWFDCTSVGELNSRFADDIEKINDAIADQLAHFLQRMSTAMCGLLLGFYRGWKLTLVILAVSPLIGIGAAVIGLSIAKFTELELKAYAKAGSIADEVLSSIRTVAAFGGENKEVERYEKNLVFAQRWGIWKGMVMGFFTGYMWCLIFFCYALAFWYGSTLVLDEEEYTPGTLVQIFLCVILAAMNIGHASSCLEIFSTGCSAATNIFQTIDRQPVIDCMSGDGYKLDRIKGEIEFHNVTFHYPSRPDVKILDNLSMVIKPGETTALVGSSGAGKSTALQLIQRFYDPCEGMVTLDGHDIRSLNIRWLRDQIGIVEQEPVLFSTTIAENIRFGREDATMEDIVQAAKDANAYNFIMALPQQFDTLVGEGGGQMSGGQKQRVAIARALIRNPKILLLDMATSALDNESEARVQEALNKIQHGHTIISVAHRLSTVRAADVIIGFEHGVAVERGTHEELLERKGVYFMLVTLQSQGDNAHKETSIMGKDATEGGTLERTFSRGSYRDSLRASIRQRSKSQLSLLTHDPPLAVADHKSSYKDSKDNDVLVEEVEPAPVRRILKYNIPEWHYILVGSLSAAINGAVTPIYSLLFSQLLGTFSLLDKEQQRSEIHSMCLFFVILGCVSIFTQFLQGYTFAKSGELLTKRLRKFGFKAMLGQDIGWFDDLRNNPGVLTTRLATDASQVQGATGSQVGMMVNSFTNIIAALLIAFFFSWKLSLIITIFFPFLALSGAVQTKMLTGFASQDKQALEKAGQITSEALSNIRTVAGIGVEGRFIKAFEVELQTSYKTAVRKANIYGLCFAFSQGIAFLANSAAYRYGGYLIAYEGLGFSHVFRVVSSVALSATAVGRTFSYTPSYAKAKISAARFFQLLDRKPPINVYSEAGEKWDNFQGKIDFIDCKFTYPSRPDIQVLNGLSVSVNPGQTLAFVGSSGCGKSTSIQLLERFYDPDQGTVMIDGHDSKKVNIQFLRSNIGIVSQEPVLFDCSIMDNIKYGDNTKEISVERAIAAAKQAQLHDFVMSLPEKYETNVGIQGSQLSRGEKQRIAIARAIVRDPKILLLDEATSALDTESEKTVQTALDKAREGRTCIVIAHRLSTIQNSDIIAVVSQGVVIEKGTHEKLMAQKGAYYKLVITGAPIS

Assay [2] has as its target Bile salt export pump (Homo sapiens, UniProt O95342).

Bile salt export pump (Homo sapiens, UniProt O95342), sequence (O95342 whole entry): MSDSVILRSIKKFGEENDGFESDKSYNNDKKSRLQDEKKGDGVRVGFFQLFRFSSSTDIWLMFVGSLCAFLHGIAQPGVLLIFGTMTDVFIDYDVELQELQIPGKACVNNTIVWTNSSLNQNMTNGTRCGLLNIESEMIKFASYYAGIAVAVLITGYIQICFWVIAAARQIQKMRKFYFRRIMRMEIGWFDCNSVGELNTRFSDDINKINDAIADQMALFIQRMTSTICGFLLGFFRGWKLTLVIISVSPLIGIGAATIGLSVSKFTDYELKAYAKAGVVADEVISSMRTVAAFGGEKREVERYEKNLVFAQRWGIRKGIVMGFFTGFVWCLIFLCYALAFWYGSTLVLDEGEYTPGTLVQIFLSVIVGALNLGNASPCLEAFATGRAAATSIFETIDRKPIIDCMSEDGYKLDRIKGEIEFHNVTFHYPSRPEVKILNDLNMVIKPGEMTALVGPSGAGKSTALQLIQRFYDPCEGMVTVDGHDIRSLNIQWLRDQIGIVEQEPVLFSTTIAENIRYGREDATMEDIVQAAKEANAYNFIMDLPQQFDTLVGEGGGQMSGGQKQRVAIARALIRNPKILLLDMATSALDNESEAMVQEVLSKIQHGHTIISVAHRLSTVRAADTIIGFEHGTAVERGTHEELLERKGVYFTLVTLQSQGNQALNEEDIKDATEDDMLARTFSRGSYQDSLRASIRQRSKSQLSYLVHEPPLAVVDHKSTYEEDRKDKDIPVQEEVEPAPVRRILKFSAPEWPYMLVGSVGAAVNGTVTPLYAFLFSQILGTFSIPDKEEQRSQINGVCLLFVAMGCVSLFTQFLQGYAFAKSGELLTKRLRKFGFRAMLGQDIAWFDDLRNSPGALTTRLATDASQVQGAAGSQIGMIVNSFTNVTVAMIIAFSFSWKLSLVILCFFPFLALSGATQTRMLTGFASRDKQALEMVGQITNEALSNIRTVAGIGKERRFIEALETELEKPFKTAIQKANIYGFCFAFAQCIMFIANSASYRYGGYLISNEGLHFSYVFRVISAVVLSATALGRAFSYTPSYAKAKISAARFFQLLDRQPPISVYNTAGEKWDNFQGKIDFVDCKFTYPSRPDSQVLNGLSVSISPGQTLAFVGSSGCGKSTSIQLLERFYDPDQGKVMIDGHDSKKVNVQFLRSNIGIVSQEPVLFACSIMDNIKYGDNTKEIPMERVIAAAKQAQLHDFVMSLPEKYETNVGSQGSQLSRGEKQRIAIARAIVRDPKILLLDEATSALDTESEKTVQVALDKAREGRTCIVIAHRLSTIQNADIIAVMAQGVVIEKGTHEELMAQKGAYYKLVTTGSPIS

One may read the Ki as a measure of affinity in units of concentration, obtained from inhibition or displacement. With `CC(C)c1c(C(=O)Nc2ccccc2)c(-c2ccccc2)c(-c2ccc(F)cc2)n1CC[C@@H](O)C[C@@H](O)CC(=O)O` [CI 981], the inhibition constant Ki on Bile salt export pump [1] turned out to be 7.57 µM.

For `CCC(C)(C)C(=O)O[C@H]1C[C@@H](C)C=C2C=C[C@H](C)[C@H](CC[C@@H](O)C[C@@H](O)CC(=O)O)[C@H]21` [Simvastatin acid], the inhibitory constant (Ki) at Bile salt export pump [1] and at Bile salt export pump [2] was more than 10 µM throughout.

Take `CC(C)n1c(/C=C/[C@@H](O)C[C@@H](O)CC(=O)O)c(-c2ccc(F)cc2)c2ccccc21` [CAS_93957-54-1]: the Ki at Bile salt export pump [1] is more than 10 µM.

Take `CCC(C)(C)C(=O)O[C@H]1C[C@@H](C)C=C2C=C[C@H](C)[C@H](CC[C@@H]3C[C@@H](O)CC(=O)O3)[C@H]21` [2,2-dimethylbutyric acid, 8-ester with (4R,6R)-6-(2-((1S,2S,6R,8S,8aR)-1,2,6,7,8,8a-hexahydro-8-hydroxy-2,6-dimethyl-1-naphthyl)ethyl)tetrahydro-4-hydroxy-2H-pyran-2-one]: at Bile salt export pump [1], the Ki is more than 10 µM.

Take `CC(C)c1nc(N(C)S(C)(=O)=O)nc(-c2ccc(F)cc2)c1/C=C/[C@@H](O)C[C@@H](O)CC(=O)O`: the Ki at Bile salt export pump [1] and on Bile salt export pump [2] was more than 10 µM throughout.

Turning to `COCc1c(C(C)C)nc(C(C)C)c(/C=C/[C@@H](O)C[C@@H](O)CC(=O)O)c1-c1ccc(F)cc1` [(3R,5S,6E)-7-[4-(4-fluorophenyl)-5-(methoxymethyl)-2,6-bis(propan-2-yl)pyridin-3-yl]-3,5-dihydroxyhept-6-enoic acid], on Bile salt export pump [1], the Ki was more than 10 µM.

Turning to `CC(C)c1c(C(=O)Nc2ccccc2)c(-c2ccccc2)c(-c2ccc(F)cc2)n1CC[C@@H]1C[C@@H](O)CC(=O)O1`, the inhibitory constant (Ki) on Bile salt export pump [1] and on Bile salt export pump [2] was more than 10 µM each time.

On to `CC[C@H](C)C(=O)O[C@H]1C[C@H](O)C=C2C=C[C@H](C)[C@H](CC[C@@H](O)C[C@@H](O)CC(=O)O)[C@H]21` [(3R,5R)-7-[(1S,2S,6S,8S,8aR)-6-hydroxy-2-methyl-8-{[(2S)-2-methylbutanoyl]oxy}-1,2,6,7,8,8a-hexahydronaphthalen-1-yl]-3,5-dihydroxyheptanoic acid], for which the Ki at Bile salt export pump [1] and on Bile salt export pump [2] was more than 10 µM each time.

For the compound `O=C(O)C[C@H](O)C[C@H](O)/C=C/c1c(C2CC2)nc2ccccc2c1-c1ccc(F)cc1` [CAS_147511-69-1], the Ki on Bile salt export pump [1] and on Bile salt export pump [2] was more than 10 µM throughout.
